Test results as given in ChEMBL document CHEMBL1201862, “PubChem BioAssay data set” (2004).
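Exposure lasted 48 hours, with cells grown in 96-well plates and compounds tested at five concentrations. GI50 marks 50% less growth.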 Active and inactive are the calls of the source. Cut-off read from the data, not from the text of the source: active = GI50 up to about 1.1 µM and inactive = higher.

Assays:
Experiment in all cases: DTP human tumour cell line panel, 48 h
786-0 = system: 786-0
ACHN = system: ACHN
COLO 205 = system: COLO 205
HCT-15 = system: HCT-15
HL-60 = system: HL-60
HOP-92 = system: HOP-92
HT-29 = system: HT-29
Hs-578T = system: Hs-578T
K562 = system: K562
LOX IMVI = system: LOX IMVI
M14 = system: M14
MDA-N = system: MDA-N
NCI-H226 = system: NCI-H226
NCI-H460 = system: NCI-H460
OVCAR-4 = system: OVCAR-4
OVCAR-8 = system: OVCAR-8
SF-268 = system: SF-268
SN12C = system: SN12C
SW-620 = system: SW-620
UACC-257 = system: UACC-257

Compound	GI50 (786-0)	GI50 (ACHN)	GI50 (COLO 205)	GI50 (HCT-15) [µM]	GI50 (HL-60)	GI50 (HOP-92)	GI50 (HT-29)	GI50 (Hs-578T)	GI50 (K562)	GI50 (LOX IMVI)	GI50 (M14)	GI50 (MDA-N)	GI50 (NCI-H226)	GI50 (NCI-H460)	GI50 (OVCAR-4)	GI50 (OVCAR-8)	GI50 (SF-268)	GI50 (SN12C)	GI50 (SW-620)	GI50 (UACC-257)
O=C1C(c2c(O)[nH]c3ccccc23)=Nc2ccc(Br)cc21	9.62 µM (inactive)	14.5 µM (inactive)	> 100 µM (inactive)	76.2	23.7 µM (inactive)	17.6 µM (inactive)	23.9 µM (inactive)	19.5 µM (inactive)	27.2 µM (inactive)	51.8 µM (inactive)	93.5 µM (inactive)	99.1 µM (inactive)	18.5 µM (inactive)	70 µM (inactive)	14.9 µM (inactive)	15.1 µM (inactive)	25.4 µM (inactive)	77.1 µM (inactive)	39.6 µM (inactive)	58.6 µM (inactive)
CC1(C)CCC(C)(C)c2cc(NC(=O)c3ccc(C(=O)O)cc3)ccc21 [TAMIBAROTENE]	31.3 µM (inactive)	36.5 µM (inactive)	23.9 µM (inactive)	26.9	44.5 µM (inactive)	24.7 µM (inactive)	25.8 µM (inactive)	24.5 µM (inactive)	54.7 µM (inactive)	22.9 µM (inactive)	26.5 µM (inactive)	25.6 µM (inactive)	22.2 µM (inactive)	21.3 µM (inactive)	31.1 µM (inactive)	41.5 µM (inactive)	34.8 µM (inactive)	25.5 µM (inactive)	> 60.4 µM (inactive)	29.4 µM (inactive)
COC(=O)C1=C(O)C(C(=O)OC)[C@]2(O)[C@H](C(=O)OC)[C@H]1C[C@@H](c1ccc(Cl)cc1Cl)[C@H]2C(=O)OC (stereo not given in full)	26.3 µM (inactive)	11 µM (inactive)	8.77 µM (inactive)	4.91	2.65 µM (inactive)	7.96 µM (inactive)	13.2 µM (inactive)	15.5 µM (inactive)	3.47 µM (inactive)	5.92 µM (inactive)	6.24 µM (inactive)	2.74 µM (inactive)	2.91 µM (inactive)	5.64 µM (inactive)	6.55 µM (inactive)	4.81 µM (inactive)	7.62 µM (inactive)	3.28 µM (inactive)	6.01 µM (inactive)	10 µM (inactive)
